{"source": "patent US8188284B2", "about": "“2-aminoquinolines” (Hoffman-La Roche Inc., priority 2008, dated 2012)", "data": [{"target": "T1, recombinant human 5-HT5A receptor (Homo sapiens, UniProt P47898)", "T1 construct": "expressed in transfected cells; host or cells: HEK-EBNA (Human Embryonic Kidney-EBNA) cells, transient cDNA expression, membranes", "T1 sequence (P47898 whole entry)": "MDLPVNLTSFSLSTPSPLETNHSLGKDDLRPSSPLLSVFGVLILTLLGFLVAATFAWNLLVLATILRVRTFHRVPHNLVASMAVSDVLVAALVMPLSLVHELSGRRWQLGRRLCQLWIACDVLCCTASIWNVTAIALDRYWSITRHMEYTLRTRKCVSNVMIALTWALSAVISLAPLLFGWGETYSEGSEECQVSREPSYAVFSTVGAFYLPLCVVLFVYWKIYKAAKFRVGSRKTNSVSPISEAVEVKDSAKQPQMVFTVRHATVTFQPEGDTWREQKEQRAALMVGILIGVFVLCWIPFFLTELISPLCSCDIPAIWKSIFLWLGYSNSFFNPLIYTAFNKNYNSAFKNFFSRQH", "test": "[3H]LSD radioligand binding assay", "conditions": "not given", "method": "(§1) A [^3H]LSD radioligand binding assay was used to determine the affinity of the compounds for the recombinant human 5-HT5A receptor, in membranes from transiently (cDNA) expressed 5-HT5A receptors in Human Embryonic Kidney-EBNA (HEK-EBNA) cells. Assay buffer consisted of Tris (50 mM) buffer containing 1 mM EGTA, 10 mM MgCl2 (pH 7.4) and 10 μM pargyline. The binding assay was carried out in 96-well-plates in the presence of [^3H]LSD (approximately 1 nM), approximately 2 μg/well of membrane protein, and 0.5 mg of Ysi-poly-1-lysine SPA beads in a final volume of 200 μl of buffer. Non-specific binding was defined using methiothepin 2 μM. Compounds were tested at 10 concentrations. All assays were conducted in duplicate and repeated at least two times. Assay plates were incubated for 120 min at room temperature before centrifugation. Bound ligand was determined using a Packard Topcount scintillation counter. IC50 values were calculated using a non-linear curve fitting program and Ki values calculated using the Cheng-Prussoff equation.", "units": {"Ki": "nM"}, "values": [{"smiles": "COc1ccc(OC(=O)Nc2ccc3nc(N[C@@H]4CCc5ccccc54)ccc3c2)cc1", "note": "[Example 47, [2-((R)-Indan-1-ylamino)-quinolin-6-yl]-carbamic acid 4-methoxy-phenyl ester]", "Ki": 20}]}, {"target": "T1, recombinant human 5-HT5A receptor", "test": "[3H]LSD radioligand binding assay", "conditions": "[3H]LSD (approximately 1 nM), membranes from HEK-EBNA cells transiently expressing 5-HT5A receptors; Ki calculated from IC50 using the Cheng-Prussoff equation; read-out: Ki/nM 5-HT5A", "method": "as §1", "units": {"Ki": "nM"}, "values": [{"smiles": "COc1cccc2c1C(Nc1ccc3cc(Nc4cccc(C)n4)ccc3n1)CC2", "note": "(racemic) [Example 94, rac-N^2-(7-Methoxy-indan-1-yl)-N^6-(6-methyl-pyridin-2-yl)-quinoline-2,6-diamine]", "Ki": 3.4}, {"smiles": "COc1cccc2c1C(Nc1ccc3cc(NC(=O)Cn4ccnc4)ccc3n1)CC2", "note": "(racemic) [Example 100, rac-2-Imidazol-1-yl-N-[2-(7-methoxy-indan-1-ylamino)-quinolin-6-yl]-acetamide]", "Ki": 21.2}, {"smiles": "Fc1ccc2c(c1)CCC2Nc1ccc2cc(Nc3cccc(C(F)(F)F)n3)ccc2n1", "note": "(racemic) [Example 102, rac-N^2-(5-Fluoro-indan-1-yl)-N^6-(6-trifluoromethyl-pyridin-2-yl)-quinoline-2,6-diamine]", "Ki": 19.1}, {"smiles": "Cc1cccc(Nc2ccc3nc(NC4CCc5cc(F)ccc54)ccc3c2)n1", "note": "(racemic) [Example 105, rac-N^2-(5-Fluoro-indan-1-yl)-N^6-(6-methyl-pyridin-2-yl)-quinoline-2,6-diamine]", "Ki": 6.8}, {"smiles": "COc1cccc2c1C(Nc1ccc3cc(Nc4cccc(C)n4)ccc3n1)CO2", "note": "(racemic) [Example 112, rac-N^2-(4-Methoxy-2,3-dihydro-benzofuran-3-yl)-N^6-(6-methyl-pyridin-2-yl)-quinoline-2,6-diamine]", "Ki": 8}, {"smiles": "COc1cccc2c1C(Nc1ccc3cc(NC(=O)Cc4ccncc4)ccc3n1)CC2", "note": "(racemic) [Example 115, rac-N-[2-(7-Methoxy-indan-1-ylamino)-quinolin-6-yl]-2-pyridin-4-yl-acetamide]", "Ki": 15}, {"smiles": "COc1cccc(COc2ccc3nc(N[C@@H]4CCc5ccccc54)ccc3c2)c1", "note": "[Example 2, (R)-Indan-1-yl-[6-(3-methoxy-benzyloxy)-quinolin-2-yl]-amine]", "Ki": 92.4}, {"smiles": "c1cncc(CNc2ccc3nc(N[C@@H]4CCc5ccccc54)ccc3c2)c1", "note": "[Example 4, N^2—(R)-Indan-1-yl-N^6-pyridin-3-ylmethyl-quinoline-2,6-diamine]", "Ki": 9.8}, {"smiles": "c1ccc2c(c1)CC[C@H]2Nc1ccc2cc(NCCCn3ccnc3)ccc2n1", "note": "[Example 9, N^6-(3-Imidazol-1-yl-propyl)-N^2—(R)-indan-1-yl-quinoline-2,6-diamine]", "Ki": 176}, {"smiles": "c1ccc2c(c1)CC[C@H]2Nc1ccc2cc(NCc3cccc4[nH]ccc34)ccc2n1", "note": "[Example 11, N^2—(R)-Indan-1-yl-N^6-(1-H-indol-4-ylmethyl)-quinoline-2,6-diamine]", "Ki": 9.4}, {"smiles": "c1ccc2c(c1)CC[C@H]2Nc1ccc2cc(NCc3ncc[nH]3)ccc2n1", "note": "[Example 12, N^6-(1H-Imidazol-2-ylmethyl)-N^2—(R)-indan-1-yl-quinoline-2,6-diamine]", "Ki": 16.6}, {"smiles": "c1ccc2c(c1)CC[C@H]2Nc1ccc2cc(NCc3nccs3)ccc2n1", "note": "[Example 13, N^2—(R)-Indan-1-yl-N^6-thiazol-2-ylmethyl-quinoline-2,6-diamine]", "Ki": 7.6}, {"smiles": "O=S(=O)(Nc1ccc2nc(N[C@@H]3CCc4ccccc43)ccc2c1)c1ccc(F)cc1", "note": "[Example 14, 4-Fluoro-N-[2-((R)-indan-1-ylamino)-quinolin-6-yl]-benzenesulfonamide]", "Ki": 36.4}, {"smiles": "c1ccc2c(c1)CC[C@H]2Nc1ccc2cc(NCc3ccncc3)ccc2n1", "note": "[Example 15, N^2—(R)-Indan-1-yl-N^6-pyridin-4-ylmethyl-quinoline-2,6-diamine]", "Ki": 33.7}, {"smiles": "O=C(Nc1ccccc1)Nc1ccc2nc(N[C@@H]3CCc4ccccc43)ccc2c1", "note": "[Example 16, 1-[2-((R)-Indan-1-ylamino)-quinolin-6-yl]-3-phenyl-urea]", "Ki": 4.9}, {"smiles": "Cc1nc[nH]c1CNc1ccc2nc(N[C@@H]3CCc4ccccc43)ccc2c1", "note": "[Example 17, N^2—(R)-Indan-1-yl-N^6-(5-methyl-3-H-imidazol-4-ylmethyl)-quinoline-2,6-diamine]", "Ki": 7.6}, {"smiles": "c1ccc2c(c1)CC[C@H]2Nc1ccc2cc(NCc3cc[nH]n3)ccc2n1", "note": "[Example 18, N^2—(R)-Indan-1-yl-N^6-(1-H-pyrazol-3-ylmethyl)-quinoline-2,6-diamine]", "Ki": 9}, {"smiles": "O=C(Nc1ccc(F)cc1)Nc1ccc2nc(N[C@@H]3CCc4ccccc43)ccc2c1", "note": "[Example 19, 1-(4-Fluoro-phenyl)-3-[2-((R)-indan-1-ylamino)-quinolin-6-yl]-urea]", "Ki": 6.5}, {"smiles": "O=C(Nc1cccc(F)c1)Nc1ccc2nc(N[C@@H]3CCc4ccccc43)ccc2c1", "note": "[Example 20, 1-(3-Fluoro-phenyl)-3-[2-((R)-indan-1-ylamino)-quinolin-6-yl]-urea]", "Ki": 7.8}, {"smiles": "COc1ccc(NC(=O)Nc2ccc3nc(N[C@@H]4CCc5ccccc54)ccc3c2)cc1", "note": "[Example 21, 1-[2-((R)-Indan-1-ylamino)-quinolin-6-yl]-3-(4-methoxy-phenyl)-urea]", "Ki": 6.3}, {"smiles": "COc1cccc(NC(=O)Nc2ccc3nc(N[C@@H]4CCc5ccccc54)ccc3c2)c1", "note": "[Example 22, 1-[2-((R)-Indan-1-ylamino)-quinolin-6-yl]-3-(3-methoxy-phenyl)-urea]", "Ki": 21.9}, {"smiles": "COc1ccccc1NC(=O)Nc1ccc2nc(N[C@@H]3CCc4ccccc43)ccc2c1", "note": "[Example 23, 1-[2-((R)-Indan-1-ylamino)-quinolin-6-yl]-3-(2-methoxy-phenyl)-urea]", "Ki": 25.6}, {"smiles": "O=C(Nc1ccc2nc(N[C@@H]3CCc4ccccc43)ccc2c1)Nc1ccccc1F", "note": "[Example 25, 1-(2-Fluoro-phenyl)-3-[2-((R)-indan-1-ylamino)-quinolin-6-yl]-urea]", "Ki": 4.2}, {"smiles": "C[C@@H](NC(=O)Nc1ccc2nc(N[C@@H]3CCc4ccccc43)ccc2c1)c1ccccc1", "note": "[Example 27, 1-[2-((R)-Indan-1-ylamino)-quinolin-6-yl]-3-((R)-1-phenyl-ethyl)-urea]", "Ki": 9.8}, {"smiles": "C[C@H](NC(=O)Nc1ccc2nc(N[C@@H]3CCc4ccccc43)ccc2c1)c1ccccc1", "note": "[Example 28, 1-[2-((R)-Indan-1-ylamino)-quinolin-6-yl]-3-((S)-1-phenyl-ethyl)-urea]", "Ki": 36.7}, {"smiles": "COc1ccc(CNC(=O)Nc2ccc3nc(N[C@@H]4CCc5ccccc54)ccc3c2)cc1", "note": "[Example 29, 1-[2-((R)-Indan-1-ylamino)-quinolin-6-yl]-3-(4-methoxy-benzyl)-urea]", "Ki": 16.5}, {"smiles": "O=C(Nc1ccc(Cl)nc1)Nc1ccc2nc(N[C@@H]3CCc4ccccc43)ccc2c1", "note": "[Example 31, 1-(6-Chloro-pyridin-3-yl)-3-[2-((R)-indan-1-ylamino)-quinolin-6-yl]-urea]", "Ki": 16.4}, {"smiles": "O=C(Nc1ccnc(Cl)c1)Nc1ccc2nc(N[C@@H]3CCc4ccccc43)ccc2c1", "note": "[Example 33, 1-(2-Chloro-pyridin-4-yl)-3-[2-((R)-indan-1-ylamino)-quinolin-6-yl]-urea]", "Ki": 18.2}, {"smiles": "CN(c1ccc(Cl)cc1)S(=O)(=O)Nc1ccc2nc(N[C@@H]3CCc4ccccc43)ccc2c1", "note": "[Example 40, N-(4-chlorophenyl)-N′-{2-[(1R)-2,3-dihydro-1H-inden-1-ylamino]quinolin-6-yl}-N-methylsulfamide]", "Ki": 29.6}, {"smiles": "CN(c1ccc(F)cc1)S(=O)(=O)Nc1ccc2nc(N[C@@H]3CCc4ccccc43)ccc2c1", "note": "[Example 41, N′-{2-[(1R)-2,3-dihydro-1H-inden-1-ylamino]quinolin-6-yl}-N-(4-fluorophenyl)-N-methylsulfamide]", "Ki": 25.8}, {"smiles": "Cc1noc(C)c1NC(=O)Nc1ccc2nc(N[C@@H]3CCc4ccccc43)ccc2c1", "note": "[Example 42, 1-(3,5-Dimethyl-isoxazol-4-yl)-3-[2-((R)-indan-1-ylamino)-quinolin-6-yl]-urea]", "Ki": 25.8}, {"smiles": "Cn1cncc1CNC(=O)Nc1ccc2nc(N[C@@H]3CCc4ccccc43)ccc2c1", "note": "[Example 45, 1-[2-((R)-Indan-1-ylamino)-quinolin-6-yl]-3-(3-methyl-3H-imidazol-4-ylmethyl)-urea]", "Ki": 10.6}, {"smiles": "O=C(Nc1ccc2nc(N[C@@H]3CCc4ccccc43)ccc2c1)c1ccc(F)cc1", "note": "[Example 50, 4-Fluoro-N-[2-((R)-indan-1-ylamino)-quinolin-6-yl]-benzamide]", "Ki": 72.5}, {"smiles": "O=C(NCc1ccc2nc(N[C@@H]3CCc4ccccc43)ccc2c1)c1ccc(F)cc1", "note": "[Example 54, 4-Fluoro-N-[2-((R)-indan-1-ylamino)-quinolin-6-ylmethyl]-benzamide]", "Ki": 141}, {"smiles": "Cn1nccc1NC(=O)Nc1ccc2nc(N[C@@H]3CCc4ccccc43)ccc2c1", "note": "[Example 58, 1-[2-((R)-Indan-1-ylamino)-quinolin-6-yl]-3-(2-methyl-2H-pyrazol-3-yl)-urea]", "Ki": 20.3}, {"smiles": "c1ccc2c(c1)CC[C@H]2Nc1ccc2cc(-n3ccnc3)ccc2n1", "note": "[Example 61, (6-Imidazol-1-yl-quinolin-2-yl)-(R)-indan-1-yl-amine]", "Ki": 422}, {"smiles": "O=C(NC(=S)Nc1ccc2nc(N[C@@H]3CCc4ccccc43)ccc2c1)c1ccccc1", "note": "[Example 63, 1-Benzoyl-3-[2-((R)-indan-1-ylamino)-quinolin-6-yl]-thiourea]", "Ki": 390}, {"smiles": "Fc1ccc(CNCc2ccc3nc(N[C@@H]4CCc5ccccc54)ccc3c2)cc1", "note": "[Example 64, {6-[(4-Fluoro-benzylamino)-methyl]-quinolin-2-yl}-(R)-indan-1-yl-amine]", "Ki": 348}, {"smiles": "FC(F)(F)c1cccc(Nc2ccc3nc(N[C@@H]4CCc5ccccc54)ccc3c2)n1", "note": "[Example 80, N^2—(R)-Indan-1-yl-N^6-(6-trifluoromethyl-pyridin-2-yl)-quinoline-2,6-diamine]", "Ki": 24.1}]}]}
